Measured values from US20110105472A1, “Diaminopyrimidines as crop protection agents” (Bayer CropScience AG, priority 2008, published 2011).
Marks after values point to notes of the source that are not given here.

Test system: not listed separately
Assay: logP by HPLC on reversed-phase columns (C 18), method [a], acidic range pH 2.3
Type: physicochemical
Details: pH 2.3

Compound | log p | chromatographic logP
CSc1cccc(Nc2ncc(C(F)(F)F)c(NC3CCC3)n2)c1 [Compound 57] | 4.05[a]; | 
Fc1ccc(Nc2ncc(C(F)(F)F)c(NC3CCC3)n2)cc1 [Compound 58] | 3.5[a]; | 

Continued, values first:

log p | chromatographic logP | Compound
2.94[a]; |  | CC1CC(C)CN(c2cccc(Nc3ncc(Cl)c(NC4CCC4)n3)c2)C1 (centres unmarked) [Compound 51]
2.64[a]; |  | O=C1CCCN1c1cccc(Nc2ncc(C(F)(F)F)c(NC3CCC3)n2)c1 [Compound 55]
2.51[a]; |  | O=C1CCCN1c1ccc(Nc2ncc(C(F)(F)F)c(NC3CCC3)n2)cc1 [Compound 56]
 | 3.33 | FC(F)(F)c1cnc(Nc2ccccc2)nc1NC1CCC1 [Compound 54, N^4-Cyclobutyl-N^2-phenyl-5-(trifluoromethyl)pyrimidine-2,4-diamine]
1.71[a]; |  | O=C1CCCN1c1cccc(Nc2ncc(Cl)c(NC3CCC3)n2)c1 [Compound 48]
2.69[a]; |  | O=C1CCCN1c1cc(Nc2ncc(C(F)(F)F)c(NC3CCC3)n2)ccc1F [Compound 211]
2.15[a]; |  | Fc1ccc(Nc2ncc(Cl)c(NC3CCC3)n2)cc1 [Compound 47]

Test system: Meloidogyne incognita
Assay: Meloidogyne test (spray treatment)
Type: in vivo
Details: concentration 20 ppm; lettuce roots
Protocol: Containers are filled with sand, active compound solution, Meloidogyne incognita egg/larvae suspension and lettuce seeds. The lettuce seeds germinate and the plants develop. On the roots, galls are formed. After the desired period of time, the nematicidal activity is determined by the formation of galls in %. 100% means that no galls were found; 0% means that the number of galls on the treated plants corresponds to that of the untreated control.

Compound | efficacy (nematicidal activity by formation of galls) [%]
CC(=O)Nc1ccc(Nc2ncc(Cl)c(NC3CCC3)n2)cc1Cl [Compound 118] | > 80

Test system: Spodoptera frugiperda larvae
Assay: Spodoptera frugiperda test (SPDFR spray application)
Type: in vivo
Details: application rate 500 g/ha; maize plants
Protocol: Spodoptera frugiperda Test (SPDFR Spray Application)
Solvents: 78.0 parts by weight of acetone • • 1.5 parts by weight of dimethylformamide Emulsifier: 0.6 part by weight of alkylaryl polyglycol ether
Maize plants (Zea mays) are watered with an active compound preparation of the desired concentration and infected with Spodoptera frugiperda larvae.
After the desired period of time, the kill in % is determined. 100% means that all larvae have been killed; 0% means that none of the larvae have been killed.

Compound | efficacy (kill in %) [%]
CN(C)C(=O)c1ccc(Nc2ncc(C(F)(F)F)c(NC3CCC3)n2)cc1 [Compound 221] | ≥ 80

Test system: Capsella bursa-pastoris (shepherd's purse)
Assay: Herbicidal pre-emergence action (PE), CAPBP
Type: in vivo
Details: dose 1000 g/ha, visual assessment after 2 weeks
From the text: (§1) 1. Herbicidal Pre-Emergence Action (═Pe)
(§2) Seeds of monocotyledonous and dicotyledonous harmful plants are placed in sandy loam and covered with soil. The compounds according to the invention, formulated as emulsion concentrates (EC), are then, as an aqueous emulsion with a water application rate of 800 l/ha (converted), applied to the surface of the covering soil.
(§3) After the treatment, the pots are placed in a greenhouse and kept under good growth conditions for the test plants. The visual assessment of the damage on the test plants is carried out after a trial period of 2 weeks by comparison with untreated controls (herbicidal effect in percent (%): 100% effect=the plants have died, 0% effect=like control plants). CAPBP=Capsella bursa-pastoris (shepherd's purse), STEME=Stellaria media (common chickweed)

Compound | herbicidal effect CAPBP [%]
O=C(O)c1ccc(Nc2ncc(Br)c(NC3CCC3)n2)cc1 [Compound 156] | 70
CS(=O)(=O)Cc1cccc(Nc2ncc(Br)c(NC3CCC3)n2)c1 [Compound 88] | 90
CC(=O)Nc1cc(Nc2ncc(Cl)c(NC3CCC3)n2)ccc1C [Compound 142] | 80

Test system: Stellaria media (common chickweed)
Assay: Herbicidal pre-emergence action (PE), STEME
Type: in vivo
Details: dose 1000 g/ha, visual assessment after 2 weeks
From the text: as §1, §2, §3

Compound | herbicidal effect STEME [%]
O=C(O)c1ccc(Nc2ncc(Br)c(NC3CCC3)n2)cc1 [Compound 156] | 70
CS(=O)(=O)Cc1cccc(Nc2ncc(Br)c(NC3CCC3)n2)c1 [Compound 88] | 80
CC(=O)Nc1cc(Nc2ncc(Cl)c(NC3CCC3)n2)ccc1C [Compound 142] | 70

Test system: Abutilon theophrasti (velvetleaf)
Assay: Herbicidal post-emergence action (PO), ABUTH
Type: in vivo
Details: dose 1000 g/ha, rated visually after about 2 weeks
Protocol: (§4) 2. Herbicidal Post-Emergence Action (═PO)
(§5) Seeds of monocotyledonous and dicotyledonous harmful plants are placed in sandy loam, covered with soil and cultivated in a greenhouse under good growth conditions. About 2 weeks after sowing, the test plants are treated at the one-leaf stage. To this end, the compounds according to the invention, formulated as emulsion concentrates (EC), as an aqueous emulsion with a water application rate of 800 l/ha (converted), are sprayed onto the green parts of the plants. After the test plants have been kept in the greenhouse under optimum growth conditions for about 2 weeks, the effect of the preparations is rated visually in comparison to untreated controls (herbicidal effect in percent (%): 100% effect=the plants have died, 0% effect=like control plants). CAPBP=Capsella bursa-pastoris (shepherd's purse), STEME=Stellaria media (common chickweed), ABUTH=Abutilon theophrasti (velvetleaf), AMARE=Amaranthus retroflexus (redroot pigweed)

Compound | herbicidal effect ABUTH [%]
CN1CCN(c2cccc(Nc3ncc(Br)c(NC4CCC4)n3)c2)C1=O [Compound 59] | 80
CC(=O)Nc1cc(Nc2ncc(Cl)c(NC3CCC3)n2)ccc1C [Compound 142] | 70

Test system: Amaranthus retroflexus (redroot pigweed)
Assay: Herbicidal post-emergence action (PO), AMARE
Type: in vivo
Details: dose 1000 g/ha, rated visually after about 2 weeks
Protocol: as §4, §5

Compound | herbicidal effect AMARE [%]
CC(=O)Nc1cc(Nc2ncc(Cl)c(NC3CCC3)n2)ccc1C [Compound 142] | 80
O=C1CCCN1c1cccc(Nc2ncc(Cl)c(NC3CCC3)n2)c1 [Compound 48] | 70

Test system: Capsella bursa-pastoris (shepherd's purse)
Assay: Herbicidal post-emergence action (PO), CAPBP
Type: in vivo
Details: dose 1000 g/ha, rated visually after about 2 weeks
Protocol: as §4, §5

Compound | herbicidal effect CAPBP [%]
CN1CCN(c2cccc(Nc3ncc(Br)c(NC4CCC4)n3)c2)C1=O [Compound 59] | 70
CS(=O)(=O)Cc1cccc(Nc2ncc(Br)c(NC3CCC3)n2)c1 [Compound 88] | 70
O=C1CCCN1c1cccc(Nc2ncc(Cl)c(NC3CCC3)n2)c1 [Compound 48] | 70

Test system: Stellaria media (common chickweed)
Assay: Herbicidal post-emergence action (PO), STEME
Type: in vivo
Details: dose 1000 g/ha, rated visually after about 2 weeks
Protocol: as §4, §5

Compound | herbicidal effect STEME [%]
CN1CCN(c2cccc(Nc3ncc(Br)c(NC4CCC4)n3)c2)C1=O [Compound 59] | 80
CS(=O)(=O)Cc1cccc(Nc2ncc(Br)c(NC3CCC3)n2)c1 [Compound 88] | 80

Test system: not listed separately
Assay: logP by LC-MS, method [b], acidic range pH 2.7
Type: physicochemical
Details: pH 2.7

log p | Compound
1.78[b] | CC(=O)Nc1ccc(Nc2ncc(Cl)c(NC3CCC3)n2)cc1Cl [Compound 118]
1.79[b] | CN1CCN(c2cccc(Nc3ncc(Br)c(NC4CCC4)n3)c2)C1=O [Compound 59]
1.66[b] | CS(=O)(=O)Cc1cccc(Nc2ncc(Br)c(NC3CCC3)n2)c1 [Compound 88]
1.38[b] | CC(=O)Nc1cc(Nc2ncc(Cl)c(NC3CCC3)n2)ccc1C [Compound 142]
2.48[b] | CN(C)C(=O)c1ccc(Nc2ncc(C(F)(F)F)c(NC3CCC3)n2)cc1 [Compound 221]

Compound | log p
O=C(O)c1ccc(Nc2ncc(Br)c(NC3CCC3)n2)cc1 [Compound 156] | 1.94[b]

Test system: not listed separately
Assay: physchem
Type: physicochemical
Details: pH 7.8

Compound | log p | chromatographic logP
CSc1cccc(Nc2ncc(C(F)(F)F)c(NC3CCC3)n2)c1 [Compound 57] | 4.36[c] | 
Fc1ccc(Nc2ncc(C(F)(F)F)c(NC3CCC3)n2)cc1 [Compound 58] | 4[c] | 

Further lines, results first:

log p | chromatographic logP | Compound
5.82[c] |  | CC1CC(C)CN(c2cccc(Nc3ncc(Cl)c(NC4CCC4)n3)c2)C1 (centres unmarked) [Compound 51]
3.09[c] |  | O=C1CCCN1c1cccc(Nc2ncc(C(F)(F)F)c(NC3CCC3)n2)c1 [Compound 55]
3.01[c] |  | O=C1CCCN1c1ccc(Nc2ncc(C(F)(F)F)c(NC3CCC3)n2)cc1 [Compound 56]
 | 3.96 | FC(F)(F)c1cnc(Nc2ccccc2)nc1NC1CCC1 [Compound 54, N^4-Cyclobutyl-N^2-phenyl-5-(trifluoromethyl)pyrimidine-2,4-diamine]
2.74[c] |  | O=C1CCCN1c1cccc(Nc2ncc(Cl)c(NC3CCC3)n2)c1 [Compound 48]
2.96[c] |  | O=C1CCCN1c1cc(Nc2ncc(C(F)(F)F)c(NC3CCC3)n2)ccc1F [Compound 211]
3.7[c] |  | Fc1ccc(Nc2ncc(Cl)c(NC3CCC3)n2)cc1 [Compound 47]
